Measured values as given in PubChem BioAssay AID540271 (Broad Institute, 2011).
Activity calls are given as the source filed them. No rule for the calls is given here.

Test system: S. cerevisiae expressing PfHSP40, growth rescue, plate reader
Test: Yeast growth rescue from Plasmodium falciparum HSP40 toxicity, dose response confirmatory, plate reader (AID 540271);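 also: yeast growth read after three days of incubation at 30 °C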

Row | Compound | AC50
1 | COc1cccc(C(=O)Nc2sc(C(C)C)cc2C(N)=O)c1OC | 5.46 µM
2 | Cc1noc2ncnc(SCc3ccc(C(F)(F)F)cc3)c12 | 7.67 µM
3 | O=C(Cc1ccccc1F)Nc1nc(-c2ccc(F)c(F)c2)cs1 | 6.72 µM
4 | CCOC(=O)c1cccc2c1-c1ccccc1/C2=N/O | 6.3 µM
5 | CC(=O)C1=C(c2cccc([N+](=O)[O-])c2)N(C(C)=O)n2c(C)nnc2S1 | 2.7 µM
6 | Cc1nc2c(o1)C(=O)c1ccccc1C2=Nc1ccccc1 | 5.02 µM
7 | O=c1c(-c2cccc3ccccc23)[n+]([O-])c2ccccc2n1O | 10.4 µM
8 | CCCOc1ccc(C(=O)NNC(=S)NC(=O)CC)cc1 | 6.95 µM
9 | CC(C)C(=O)NC(c1cccc([N+](=O)[O-])c1)c1ccc2cccnc2c1O (stereo not given) | 1.27 µM
10 | COc1cc2c(c(OC)c1OC)-c1ccc(O)c(=O)cc1[C@@H](NC(C)=O)CC2 | 1.87 µM
11 | O=C(CN1CC[n+]2c(-c3cccs3)csc21)c1ccc(-c2ccccc2)cc1 | 7.25 µM
12 | c1ccc(Nc2cccc(Nc3ccccc3)c2)cc1 | 5.81 µM
13 | Cc1onc(-c2ccccc2)c1C(=O)NC(=S)NNC(=O)c1ccc(O)cc1O | 4.82 µM
14 | Cc1ccc(COc2ccc(Br)cc2/C=N/O)cc1 | 7.92 µM
15 | O=C(c1ccccc1)c1ccc(Cn2cc(-c3ccccc3)nn2)cc1 | 4.34 µM
16 | Cc1ccc(Cl)cc1NC1=C/C(=N\S(=O)(=O)c2cccs2)c2ccccc2C1=O | 6.42 µM
17 | O=C(Nc1nnc(-c2ccccc2)o1)c1ccc(Cl)cc1 | 1.84 µM
18 | O=S(=O)(CCSc1ccccn1)c1nc2ccccc2s1 | 7.49 µM
19 | CC(=O)Nc1cccc(NC(=O)CSc2ccc(-c3ccccn3)nn2)c1 | 3.64 µM
20 | COC(=O)C1=NN(C(=O)c2cccc(Br)c2)C(O)(c2ccc(Cl)cc2)C1 (stereo not given) | 5.82 µM
21 | CN(C)c1nc(SCc2ccc(Cl)cc2)nc2c1CCCC2 | 5.58 µM
22 | Oc1c(Br)cc(Br)cc1CNc1ccc(F)cc1 | 6.21 µM
23 | CN(C)S(=O)(=O)c1cccc(NC(=S)NNC(=O)c2cc3ccccc3cc2O)c1 | 2.86 µM

Row | Compound | AC50
24 | Cc1cc(C(=O)COC(=O)Cc2n[nH]c(=O)c3ccccc23)c(C)n1-c1cccc(C(F)(F)F)c1 | 6.72 µM
25 | CCOC(=O)C1=C(Cc2ccc(OC)cc2)C(=O)c2ccccc2C1=O | 5.4 µM
26 | Cc1ccc(NC2=C(NC(=O)c3ccccc3)C(=O)c3ccccc3C2=O)cc1Cl | 7.65 µM
27 | CCCCC(=O)NC(=S)NNC(=O)CCc1ccccc1 | 5.21 µM
28 | COc1ccc(OC)c2c1C(=O)C(Cl)=C(Cl)C2=O | 1.4 µM
29 | CC(C)NC(=O)NC(=O)COC(=O)c1ccc([N+](=O)[O-])cc1Cl | 12 µM
30 | N#Cc1c(-c2ccc(Cl)cc2)n(O)c2ccccc12 | 2.67 µM
31 | CCC(C)n1ncn(-c2ccc(N3CCN(c4ccc(OCC5COC(Cn6cncn6)(c6ccc(Cl)cc6Cl)O5)cc4)CC3)cc2)c1=O (stereo not given) | 0.129 µM
32 | CCOC(=O)c1ccc(NC(=O)CC2C(=O)OCCN2CC)cc1 (stereo not given) | 4.66 µM
33 | Cc1ccc(C2(c3ccc(C)cc3)CC2C(=O)Nc2ccc([N+](=O)[O-])cc2O)cc1 (stereo not given) | 5.44 µM
34 | COc1ccccc1CNC(=O)CSc1ccc(-c2ccccn2)nn1 | 5.89 µM
35 | O=[N+]([O-])c1cc(C(F)(F)F)ccc1NCCc1c[nH]c2ccc(O)cc12 | 4.85 µM
36 | O=C(Nc1ccc(Br)c(C(F)(F)F)c1)c1ccccc1 | 4.78 µM
37 | N/C(Cc1ccc(Cl)cc1Cl)=N\OC(=O)c1ccccc1F | 5.93 µM
38 | O=C(c1ccccc1)N1C(=O)C(c2ccccc2)Oc2ccccc21 (stereo not given) | 0.937 µM
39 | N=c1c2c(-c3ccccc3)c(-c3ccccc3)n(Cc3ccco3)c2ncn1CCCn1ccnc1 | > 12 µM (inactive)
40 | CC1CCCCC1NC(=O)/C(C#N)=C/c1ccccc1F (stereo not given) | 5.7 µM
41 | Cc1ccc(NS(=O)(=O)c2ccc(N3CCN(c4ccc(O)cc4)CC3)c([N+](=O)[O-])c2)c(C)c1 | 7.43 µM
42 | O=c1cnn([C@@H]2O[C@H](CO)[C@@H](O)[C@H]2O)c(=O)[nH]1 | > 12 µM (inactive)
43 | Cc1cccc(C)c1N1C(=O)C2ON(c3ccccc3)C(c3ccncc3)C2C1=O (stereo not given) | 6.34 µM
44 | Cc1ccc(S(=O)(=O)Nc2ccc(O)c3cccnc23)cc1 | > 12 µM (inactive)
45 | O=C(Nc1cc(Oc2ccc(Cl)cc2)cc([N+](=O)[O-])c1)c1ccco1 | > 12 µM (inactive)
46 | O=C1CC(O)(C(F)(F)F)Oc2c1ccc1ccccc21 (stereo not given) | 5.78 µM

Row | Compound | AC50
47 | C=C1C(=O)C23CCC4C(C)(C(=O)OC)CCCC4(C)C2CCC1(O)C3 (stereo not given) | 11.6 µM
48 | CC(C)(C)n1nc(Cc2cccc3ccccc23)c2c(N)ncnc21 | 5.46 µM
49 | O=[N+]([O-])c1cccc(-c2cc(-c3cc(Br)ccc3O)[nH]n2)c1 | 5.44 µM
50 | CCC(Oc1ccccc1)C(=O)Nc1ncc([N+](=O)[O-])s1 (stereo not given) | 6.83 µM
51 | Oc1ccc(N=Nc2ccc3c(c2)OCCO3)c2cccnc12 | 1.85 µM
52 | c1ccc(-c2ccc(SCc3cccnc3)nn2)nc1 | > 12 µM (inactive)
53 | O=C(O)c1ccccc1NC(c1ccccc1)c1ccc2cccnc2c1O (stereo not given) | 2.19 µM
54 | CCOC(=O)N1C(=O)C2(CCCCC2)N(c2ccccc2Cl)C1=S | 0.084 µM
55 | Cc1ccc(NC2(c3nnnn3-c3c(C)cccc3C)CCCCC2)cc1 | 6.94 µM
56 | COc1ccc(C(=O)c2c(C(F)(F)F)oc3c2C(=O)c2ccccc2C3=O)cc1OC | 6.24 µM
57 | O=C(O)CSc1nc(-c2ccc(Cl)cc2)nc2c1oc1ccccc12 | 6.02 µM
58 | CN(C(=O)COC(=O)c1ccc([N+](=O)[O-])cc1Cl)C1CCCCC1 | 9.99 µM
59 | O=C(O)c1c(NC(=O)N2CCCC2)sc2c1CCCC2 | 3.42 µM
60 | O/N=C/c1cc(Br)ccc1OCc1cccc(F)c1 | 6.89 µM
61 | Cc1cc(Nc2ccccc2)nn1C(=O)c1ccccc1 | 5.94 µM
62 | S=C1SCN(Cc2cccnc2)CN1Cc1cccnc1 | 4.06 µM
63 | COc1ccc(C(=O)NC(=S)NNC(=O)CCc2ccccc2)cc1 | 5.29 µM
64 | CN(C)c1nc(-c2ccccn2)nnc1-c1ccccc1 | 5.25 µM
65 | O=[N+]([O-])c1cccc(C=NNc2ccc3ccccc3n2)c1O | 1.69 µM
66 | CCN(CC)C(=O)CSc1ncnc2sc(-c3ccccc3)cc12 | 8.72 µM
67 | O=C(N/N=C(\c1ccccc1)c1cccnc1)c1cccc(F)c1 | 4.97 µM
68 | S=C(NCCCc1ccccc1)Nc1ccccc1Cl | 9.44 µM
69 | O=C(N/N=C/c1c(O)n(Cc2ccccc2)c(=O)c2ccccc12)c1cccnc1 | 6.92 µM

Row | Compound | AC50
70 | CCc1cc(C(N)=O)c(NC(=O)c2ccc(OC)cc2)s1 | 1.77 µM
71 | COc1ccc2cnn(CCOc3cc(C)ccc3C(C)C)c(=O)c2c1OC | 5.9 µM
72 | Cc1ccc(NC(=O)c2cc(N3C(=O)C=CC3=O)ccc2Cl)cc1C | 1.63 µM
73 | Cc1csc2nc(O)c(C(=O)NCCCc3ccccc3)c(=O)n12 | 4.55 µM
74 | COc1ccc2c(c1)S/C(=C\C(=O)c1ccncc1)N2C | 5.21 µM
75 | CCCOc1ccc(S(=O)(=O)n2cc(F)c(=O)[nH]c2=O)cc1 | 3.66 µM
76 | O=C(CC1CC2CCC1C2)Nc1nc(-c2ccccn2)cs1 (stereo not given) | 5.1 µM
77 | O=C1c2ccccc2NC(c2ccc(-c3ccc(C(F)(F)F)cc3)o2)N1O (stereo not given) | 2.4 µM
78 | CCCCCCC(Cl)(Cn1ccnc1)c1ccccc1 (stereo not given) | 6.48 µM
79 | Nc1[nH]c(=O)ncc1F | 1.51 µM
80 | CCCCCCCCCCOC(=O)Cn1c(COc2ccccc2)[n+](C)c2ccccc21 | > 12 µM (inactive)
81 | CNc1ccc2oc(C[C@H]3O[C@@]4(CC[C@H]3C)O[C@H]([C@H](C)C(=O)c3ccc[nH]3)[C@H](C)C[C@H]4C)nc2c1C(=O)O | 0.662 µM
82 | O=C(CSc1ccc(-c2ccccn2)nn1)NCc1ccccc1 | 6.96 µM
83 | CCOC(=O)c1ccc(-c2ccc(C3Nc4ccccc4C(=O)N3O)o2)cc1 (stereo not given) | 3.91 µM
84 | CC1CC(C)CC(C)C(O)C(C#N)=CC=CCC(C2CCCC2C(=O)O)OC(=O)CC(O)C(C)C1 (stereo not given) | 5.14 µM
85 | O=C(Nc1nnc(-c2cccs2)o1)c1cccc(Oc2ccccc2)c1 | 2.57 µM
86 | Cc1oc2c(c1C(=O)c1ccccc1)C(=O)C(=O)c1ccccc1-2 | 5.65 µM
87 | O=C1OC(c2ccccc2)=NC12CC2c1ccc(Cl)cc1 (stereo not given) | 2.2 µM
88 | CCCC1CCC(c2ccc(/C(N)=N/O)cc2)CC1 (stereo not given) | > 12 µM (inactive)
89 | S=C(Nc1ccc(Oc2ccccc2)cc1)NC1CCCCCC1 | 6.93 µM
90 | Cc1ccc(Sc2cc(C)nc(-c3ccccn3)n2)cc1 | 3.51 µM
91 | O=C1OCC(CO)(CO)N=C1NNc1ccc(Cl)c(Cl)c1 | 1.87 µM
92 | O/N=C/c1cc(Br)ccc1OCc1ccccc1F | 4.76 µM

Row | Compound | AC50
93 | CCOc1ccc(N/N=C(/C#N)C(N)=O)cc1 | 4.1 µM
94 | C=CCNc1nc(-c2ccccn2)nnc1-c1ccccc1 | 10.3 µM
95 | O=Nc1c(O)n(Cc2ccc(Cl)c(Cl)c2)c2ccccc12 | 6.59 µM
96 | Cc1cc(F)ccc1S(=O)(=O)N(C(=O)c1ccncc1)c1ccc(OC(=O)c2ccncc2)cc1 | 6.3 µM
97 | Cc1ccc(Nc2cc(C)nn2-c2nc(C)cc(C)n2)cc1 | 3.95 µM
98 | Cc1nnc(N=c2ssnc2Cl)o1 | 3.22 µM
99 | O=C1Nc2c(Br)cccc2C1=O | 11.6 µM
100 | Cc1cc(C(=O)N/N=C/c2ccc(O)c(O)c2O)c(C)n1-c1ccccc1 | 3.41 µM
101 | CCCCc1ccc(-n2c(Cc3cccs3)n[nH]c2=S)cc1 | 6.45 µM
102 | Cc1nc2ccc(C(C(F)(F)F)(C(F)(F)F)C(F)(F)F)cc2[nH]1 | 3.2 µM
103 | O=S(=O)(Nc1nc2ccccc2nc1N1CCN(c2ccccn2)CC1)c1ccc(Cl)cc1 | 1.79 µM
104 | O=C(O)c1ccc(N/N=C/C2=C(N3CCOCC3)C(=C\c3ccccc3)/CC2)cc1 | 6.18 µM
105 | O=c1nc(N/N=C/c2ccccn2)cn[nH]1 | 5.76 µM
106 | O=C(C=Cc1cccc(O)c1)c1ccccc1O | 2.1 µM
107 | CCC(NC(=S)NCc1ccc(F)cc1)c1ccc(C(C)C)cc1 (stereo not given) | 5.15 µM
108 | COc1ccc(-c2cc(C(=O)NNC(=S)NC(=O)c3c(-c4ccccc4)noc3C)[nH]n2)cc1 | 2.69 µM
109 | CC(=O)Nc1cccc(-c2cc(-c3c(Cl)cccc3Cl)no2)c1 | 3.12 µM
110 | O=[N+]([O-])c1cc(Cl)cc(/C=N/NC(=S)Nc2ccc(S(=O)(=O)N3CCOCC3)cc2)c1O | 3.13 µM
111 | COC(=O)C1=C(C)NC(C)=C(C(=O)OCC(C)C)C1c1ccccc1[N+](=O)[O-] (stereo not given) | 5.87 µM
112 | Cc1ccc(-c2nc3ccc(Cl)cc3c(=O)n2O)cc1 | 2.08 µM
113 | Cc1cc(NS(=O)(=O)c2ccc(C3CCCCC3)cc2)no1 | 5.38 µM
114 | O=C(CSc1nc2ccccc2s1)N/N=C/c1cc([N+](=O)[O-])ccc1O | 5.52 µM
115 | Cn1cnc([N+](=O)[O-])c1S(=O)(=O)Oc1ccc(Cl)cc1 | 6.4 µM
